SMILES strings stand for the structures.

The target of one experiment is Galectin-3 (Homo sapiens, UniProt P17931). Description: Fluorescence anisotropy assay, inhibition of galectin / fluorescein tagged saccharide probe interaction. The class given is binding. As to the method:
(§1) The affinity of Example 1-28 for galectins were determined by a fluorescence anisotropy assay where the compound was used as an inhibitor of the interaction between galectin and a fluorescein tagged saccharide probe as described Sörme, P., Kahl-Knutsson, B., Huflejt, M., Nilsson, U. J., and Leffler H. (2004) Fluorescence polarization as an analytical tool to evaluate galectin-ligand interactions. Anal. Biochem. 334: 36-47, (Sörme et al., 2004) and Monovalent interactions of Galectin-1 By Salomonsson, Emma; Larumbe, Amaia; Tejler, Johan; Tullberg, Erik; Rydberg, Hanna; Sundin, Anders; Khabut, Areej; Frejd, Torbjorn; Lobsanov, Yuri D.; Rini, James M.; et al, From Biochemistry (2010), 49(44), 9518-9532, (Salomonsson et al., 2010).
A general note: In fluorescence polarisation assays a small probe gives low polarisation when free and higher when bound to something large.

A further experiment concerns the target Galectin-1 (Homo sapiens, UniProt P09382). The experiment is described as above. Format: binding. As to the method: as §1

Galectin-1, sequence (P09382 whole entry): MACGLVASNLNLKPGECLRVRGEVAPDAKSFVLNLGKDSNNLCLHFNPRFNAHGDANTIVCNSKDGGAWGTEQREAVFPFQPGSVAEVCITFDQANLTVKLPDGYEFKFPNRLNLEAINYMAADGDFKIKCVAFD
Galectin-3, sequence (P17931 whole entry): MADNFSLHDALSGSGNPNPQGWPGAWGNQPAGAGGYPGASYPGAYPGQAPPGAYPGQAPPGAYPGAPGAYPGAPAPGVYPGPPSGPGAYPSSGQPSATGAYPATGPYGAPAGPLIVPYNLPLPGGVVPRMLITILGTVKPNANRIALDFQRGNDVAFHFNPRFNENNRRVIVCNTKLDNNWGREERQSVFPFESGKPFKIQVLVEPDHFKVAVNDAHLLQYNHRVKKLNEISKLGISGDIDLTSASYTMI

For the molecule `OC[C@H]1O[C@H](Sc2cncc(Br)c2)[C@H](OCc2ccon2)[C@@H](n2cc(-c3cc(F)c(F)c(F)c3)nn2)[C@H]1O` [Example 19, 5-Bromopyridin-3-yl 3-deoxy-3-[4-(3,4,5-trifluorophenyl)-1H-1,2,3-triazol-1-yl]-2-O-[(isoxazol-3-yl)methyl]-1-thio-α-D-galactopyranoside], the Kd on Galectin-3 came out at 32 nM; at Galectin-1 it was 2900 nM.
For `O=C(O)CCCO[C@@H]1[C@@H](n2cc(-c3cc(F)c(F)c(F)c3)nn2)[C@@H](O)[C@@H](CO)O[C@@H]1Sc1cncc(Br)c1` [Example 26, 5-Bromopyridin-3-yl 2-O-carboxypropyl-3-deoxy-3-[4-(3,4,5-trifluorophenyl)-1H-1,2,3-triazol-1-yl]-1-thio-α-D-galactopyranoside], the Kd amounted to 10 nM at Galectin-3 and 1500 nM on Galectin-1.
As to `CC(OC1C(n2cc(-c3cc(F)c(F)c(F)c3)nn2)[C@@H](O)C(CO)O[C@@H]1Sc1cncc(Br)c1)C(=O)O` (single isomer, unassigned; diastereomer 2) [Example 28], the figures for the Kd at Galectin-3 and at Galectin-1 were 6 nM and 6400 nM, respectively.
Turning to `OC[C@H]1O[C@H](Sc2cncc(Br)c2)[C@H](OCc2cc(F)c(O)c(F)c2)[C@@H](n2cc(-c3cc(F)c(F)c(F)c3)nn2)[C@H]1O` [Example 11, 5-Bromopyridin-3-yl 3-deoxy-3-[4-(3,4,5-trifluorophenyl)-1H-1,2,3-triazol-1-yl]-2-O-(3,5-difluoro-4-hydroxybenzyl)-1-thio-α-D-galactopyranoside], the figures for the Kd on Galectin-3 and at Galectin-1 were 17 nM and 260 nM, respectively.
Turning to `O=P(O)(O)O[C@@H]1[C@@H](n2cc(-c3cc(F)c(F)c(F)c3)nn2)[C@@H](O)[C@@H](CO)O[C@@H]1Sc1cncc(Br)c1` [Example 1, 5-Bromopyridin-3-yl 3-deoxy-3-[4-(3,4,5-trifluorophenyl)-1H-1,2,3-triazol-1-yl]-2-O-phospho-1-thio-α-D-galactopyranoside], the Kd at Galectin-1 is 5400 nM.
`OCC1O[C@H](Sc2ccc(Cl)c(Cl)c2)C(OCc2nnn[nH]2)C(n2cc(-c3cc(F)c(Cl)c(F)c3)nn2)[C@H]1O` (stereo in doubt) [Example 13, 3,4-Dichlorphenyl 3-[4-(4-chloro-3,5-difluorophenyl)-1H-1,2,3-triazol-1-yl]-3-deoxy-2-O-[(1H-tetrazol-5-yl)methyl]-1-thio-α-D-galactopyranoside]: the results for the Kd at Galectin-3 and at Galectin-1 were 64 nM and 1400 nM, respectively.
Taken in the same sequence, the figures for `Cn1ccnc1CO[C@@H]1[C@@H](n2cc(-c3cc(F)c(F)c(F)c3)nn2)[C@@H](O)[C@@H](CO)O[C@@H]1Sc1cncc(Br)c1` [Example 16, 5-Bromopyridin-3-yl 3-deoxy-3-[4-(3,4,5-trifluorophenyl)-1H-1,2,3-triazol-1-yl]-2-O-[(1-methyl-1H-imidazol-2-yl)methyl]-1-thio-α-D-galactopyranoside] were 57 nM and 6400 nM.
Taken in the same sequence, the figures for `OC[C@H]1O[C@H](Sc2cncc(Br)c2)[C@H](OCc2cocn2)[C@@H](n2cc(-c3cc(F)c(F)c(F)c3)nn2)[C@H]1O` [Example 10, 5-Bromopyridin-3-yl 3-deoxy-3-[4-(3,4,5-trifluorophenyl)-1H-1,2,3-triazol-1-yl]-2-O-(oxazol-4-ylmethyl)-1-thio-α-D-galactopyranoside] were 24 nM and 9200 nM.
On Galectin-3, `O=C(O)CO[C@@H]1[C@@H](n2cc(-c3cc(F)c(F)c(F)c3)nn2)[C@@H](O)[C@@H](CO)O[C@@H]1Sc1ccc(Cl)c(Cl)c1` [Example 6, 3,4-Dichlorphenyl 2-O-carboxymethyl-3-deoxy-3-[4-(3,4,5-trifluorophenyl)-1H-1,2,3-triazol-1-yl]-1-thio-α-D-galactopyranoside] came in with a Kd of 17 nM. That is a double-digit nanomolar value.

As a reminder, the Kd is the constant that tells how readily two partners part at equilibrium.

Source of the values: US12497428B2, “Galactoside inhibitor of galectins” (GALECTO BIOTECH AB, priority 2018, dated 2025).
